Data from publication PMC3411725 (PLoS ONE, 2012).

Assays:
AroAE.coli [1] = molecular target: T1, AroAE.coli (Escherichia coli, UniProt P0A6D3); assay: malachite green phosphate release assay, Lineweaver-Burk; format: biochemical; conditions: read-out: K i [glyphosate] ^d
T1 construct: gene aroA; overexpressed and purified as P1 (pET-28a, His-tag, E. coli BL21(DE3), HisTrap)
T1 sequence (P0A6D3 1-427): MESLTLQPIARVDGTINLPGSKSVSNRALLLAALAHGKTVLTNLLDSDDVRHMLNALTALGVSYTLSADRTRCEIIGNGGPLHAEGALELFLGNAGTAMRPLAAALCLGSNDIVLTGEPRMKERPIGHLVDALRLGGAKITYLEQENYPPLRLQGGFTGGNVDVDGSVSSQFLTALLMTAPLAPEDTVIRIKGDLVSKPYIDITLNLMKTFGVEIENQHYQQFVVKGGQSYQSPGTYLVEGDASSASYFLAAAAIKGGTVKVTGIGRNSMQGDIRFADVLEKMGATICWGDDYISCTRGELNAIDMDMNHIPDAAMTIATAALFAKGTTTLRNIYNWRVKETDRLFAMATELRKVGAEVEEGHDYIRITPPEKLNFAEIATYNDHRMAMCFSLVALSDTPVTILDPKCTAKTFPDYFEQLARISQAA

AroAE.coli [2] = molecular target: T2, AroAE.coli (Escherichia coli, UniProt P0A6D3, G96A); assay: biochemical
T2 construct: gene aroA

AroAE.coli [3] = molecular target: T2, AroAE.coli; assay: biochemical; remark: listed apart in the source
AroAE.coli [4] = molecular target: T1, AroAE.coli; assay: malachite green phosphate release assay, dose-response fit; format: biochemical; conditions: read-out: IC50 [glyphosate] ^e
[5] = substrate: C=C(OP(=O)(O)O)C(=O)O; assay: malachite green phosphate release assay, Lineweaver-Burk; format: biochemical, Escherichia coli; conditions: 1 mM S3P, 50 mM HEPES pH 7.0, 28°C

In the case of `O=C(O)CNCP(=O)(O)O` [glyphosate], the Ki (AroAE.coli [1]) is reported as 1.4 ± 0.1 µM, the IC50 (AroAE.coli [2]) is reported as 220 ± 20 µM and the Ki (AroAE.coli [3]) is reported as 219.3 ± 1.9 µM. The IC50 (AroAE.coli [4]) was 50 ± 10 µM.

B1: AroAE.coli (Escherichia coli K-12) (protein)
chain: T1 sequence (P0A6D3 1-427)
notes: overexpressed and purified as P1 (pET-28a, His-tag, E. coli BL21(DE3), HisTrap)
Molecule B1 has a Km [5] of 65.8 ± 5.6 µM.
